Source: patent US20230098569A1, “METHODS OF CONTROLLING OR PREVENTING INFESTATION OF PLANTS BY THE PHYTOPATHOGENIC MICROORGANISM CORYNESPORA CASSIICOLA” (SYNGENTA CROP PROTECTION AG, priority 2020, published 2023)

test system: Corynespora cassiicola; test: Corynespora cassiicola liquid culture growth inhibition (PDB, 96-well microtiter plate, photometric at 620 nm); assay type: cell-based; conditions: 24 C, 3-4 days, compared to untreated control
Description: Conidia of the fungus from cryogenic storage were directly mixed into nutrient broth (PDB potato dextrose broth). A DMSO solution of the test compounds was placed into a microtiter plate (96-well format) and the nutrient broth containing the fungal spores was added to it. The test plates were incubated at 24 C and the inhibition of growth (% control of Corynespora cassiicola) was determined photometrically after 3-4 days at 620 nm. The activity of a compound is derived by comparing the inhibition of growth in the treated test solution to the growth in the untreated check. The concentration of the compounds was 6.7, 2.2, 0.74, 0.25, 0.082 and 0.027 ppm.

Row | Structure (SMILES) | inhibition at 6.7 ppm
1 | Cc1cccc2c1ncn2C1=NC(C)(C)C(F)(F)c2ccccc21 [Compound 1] | ≥ 70%
2 | Cc1ccc2c(ncn2C2=NC(C)(C)C(F)(F)c3ccccc32)c1C [Compound 2] | ≥ 70%
3 | Cc1c(F)ccc2c1ncn2C1=NC(C)(C)C(F)(F)c2ccccc21 [Compound 3] | ≥ 70%
4 | Cc1ccc2c(ncn2C2=NC(C)(C)C(F)(F)c3c(F)cccc32)c1C [Compound 4] | ≥ 70%
5 | Cc1cccc2c1ncn2C1=NC(C)(C)C(F)(F)c2cc(Cl)ccc21 [Compound 5] | ≥ 70%
6 | CC1(C)N=C(n2cnc3c4c(ccc32)CCC4)c2ccccc2C1(F)F [Compound 6] | ≥ 70%
